{"source": "patent US20250170154A1", "about": "(GreenStone Biosciences, Inc., priority 2023, published 2025)", "key": {"[1]": {"experiment": "Intestinal stability, mouse intestinal S9", "assay_type": "in vitro ADME", "details": "intestinal S9 fraction", "procedure": "The stability of compounds 1 and 2, and the control compound 7-hydroxycoumarin, were measured using human, rat, and mouse intestinal S9 fractions (Xenotech). Test compound working solutions were prepared by diluting 5 μL of 10 mM stock solutions in DMSO with 495 μL AN. S9 solutions were prepared by diluting the obtained S9 solutions to 1.0 mg/mL in 100 mM potassium phosphate buffer at pH 7.4 containing 10 mM D-saccharic acid-1,4-lactone. An Apricot automation workstation was used to add 100 μL/well of S9 solution to all reaction plates (Blank, T0, T5, T15, T30, T45, T60 and NCF60); 2 μL/well of compound working solutions were added to all 96-well reaction plates except the blank (T0, T5, T15, T30, T45, T60, and NCF60); 600 μL/well of stop solution (4° C. ACN containing 200 ng/mL tolbutamide and 200 ng/mL labetalol as internal standards) was added to the T0 reaction plate; all plates were pre-incubated at 37° C. for 10 minutes; a cofactor regenerating system (98 μL/well) was added, excluding the NCF60 plate which instead received 98 μL/well of 100 mM potassium phosphate buffer. All plates were then incubated at 37° C. To terminate reactions, 600 μL/well of stop solution was applied at specific end time points. After sealing and a 10-minute shaking, plates were centrifuged at 4000 rpm and 4° C. for 20 minutes. Concurrently, 300 μL/well of HPLC grade water was loaded onto eight new 96-well bioanalysis plates. Post-centrifugation, 100 μL supernatant from each reaction plate was transferred to its corresponding bioanalysis plate, shaken for 10 minutes, and then subjected to LC-MS/MS analysis (Shimadzu LC-40D LC system coupled to a Sciex Qtrap 6500 Plus mass spectrometer, using both positive and negative ion modes)."}, "[2]": {"tested_on": "LMNA^H222P/H222P mouse", "experiment": "Dilated cardiomyopathy model, echocardiography", "assay_type": "in vivo", "details": "continuous 4 weeks by osmotic pumps", "procedure": "The LMNA^H222P/H222P mouse is a well-established model for studying dilated cardiomyopathy and heart failure, with cardiac dysfunction typically beginning to manifest at around 16 weeks of age. In this study, 16-week-old LMNA^H222P/H222P mice underwent baseline echocardiography prior to treatment. Compound 2 was then administered continuously for 4 weeks using osmotic pumps, with DMSO as the vehicle control. At the end of the treatment period, echocardiography was performed again to assess the impact of compound 2 on cardiac function compared to the control group. […] In a FLNC knockout model using the Myh6-Cre:FLNC^wt/F mouse, 16-week-old mice underwent baseline echocardiography, were treated with compound 2 at 50 mg/Kg/day or vehicle by gavage for 6 weeks, and underwent echocardiography to assess the change in cardiac function. […] The genistein phosphate derivatives of this invention are therefore expected to be useful for the treatment of subjects with dilated cardiomyopathy."}, "[3]": {"tested_on": "mice with cerulein-induced chronic pancreatitis", "experiment": "Cerulein model of chronic pancreatitis (CP)", "assay_type": "in vivo, mouse", "details": "100 mg/Kg daily on the last 4 weeks", "procedure": "Using the cerulein model, acute edematous pancreatitis was induced in two test groups of mice by eight hourly intraperitoneal injections of 50 μg/Kg cerulein, with control group mice receiving injections of physiological saline. Compound 2, at 100 mg/Kg, was administered to one of the cerulein groups by gavage 30 minutes after the first and fourth cerulein injections. Mice were sacrificed one hour after the last injection and tissues were collected for histological analysis. […] Recurrent acute pancreatitis (RAP) and chronic pancreatitis (CP) were induced by repetitive cerulein injections every third day over a span of 14 days (RAP) or 6 weeks (CP). Compound 2 was administered daily at 50 mg/Kg on the last 10 consecutive days for RAP and at 100 mg/Kg on the last 4 weeks for CP, with vehicle controls. Mice were sacrificed 1 day after the last cerulein injection and tissues were collected for histological analysis. In the CP model, the cerulein injections induced extensive acinar cell damage."}, "[4]": {"experiment": "Thermodynamic solubility in FaSSIF", "assay_type": "physicochemical", "details": "thermodynamic from solid, room temperature, 24 hours shaking", "procedure": "After shaking, the samples were centrifuged at 25° C. for 20 minutes at 4000 rpm. Filtrates were prepared using the Whatman Mini-UniPrep Syringeless Filter Device (PTFE filter media with polypropylene housing, pore size 0.45 μm) from Cytiva, and dilutions were performed as required. Quantification of all samples was carried out using an LC-UV system."}, "[5]": {"tested_on": "mice with DSS-induced colitis", "experiment": "DSS-induced colitis in mice", "assay_type": "in vivo, mouse", "details": "50 mg/Kg daily by gavage", "procedure": "Mice, placed on a soy-free diet for 14 days, were administered 3.5% DSS in their drinking water for 8 days to induce colitis, and either untreated or treated with compound 2 at 50 mg/Kg daily by gavage from day 1 (prevention) or from day 5 (intervention); and monitored for clinical indicators of colitis, including stool consistency, rectal bleeding, and changes in body weight. […] The genistein phosphate derivatives of this invention are therefore expected to be useful for the treatment of subjects with inflammatory bowel disease, ulcerative colitis, and Crohn's disease."}, "[6]": {"details": "increases seen in control group"}, "[7]": {"details": "both prevention and intervention modes"}}, "note": "Where two headings read alike, the source gives them in different places.", "data": [{"smiles": "O=c1c(-c2ccc(O)cc2)coc2cc(OCOP(=O)(O)O)cc(O)c12", "note": "[Compound 2, ((5-Hydroxy-3-(4-hydroxyphenyl)-4-oxo-4H-chromen-7-yl)oxy)methyl dihydrogen phosphate]", "values": [{"measurement": "half-life at 1 µM", "setting": "[1]; pH 7.4", "value": 1.13, "unit": "h"}, {"measurement": "microsomal CLint at 1 µM", "setting": "[1]; pH 7.4, read-out: intrinsic clearance rate", "value": 20.3, "unit": "µL/min/mg"}, {"measurement": "ejection fraction", "setting": "[2]; vs DMSO control group", "value": "reduced the decrease"}, {"measurement": "fractional shortening", "setting": "[2]; vs DMSO control group", "value": "reduced the decrease"}, {"measurement": "left ventricular diameter", "setting": "[2]; [6]", "value": "reduced"}, {"measurement": "left ventricular volume", "setting": "[2]; [6]", "value": "reduced"}, {"measurement": "overall outcome over untreated mice (histology)", "setting": "[3]", "value": "marked improvement"}, {"measurement": "acinar cell death", "setting": "[3]; vs untreated group", "value": "significant reduction"}, {"measurement": "acinar cell density", "setting": "[3]; vs untreated group", "value": "increase"}, {"measurement": "solubility at 24 h", "setting": "[4]; read-out: Solubility", "value": 7.82, "unit": "mM"}, {"measurement": "solubility at 24 h", "setting": "[4]; read-out: Solubility (μg/mL)", "value": 2970, "unit": "µg/mL"}, {"measurement": "weight loss", "setting": "[5]; both prevention (from day 1) and intervention (from day 5) modes, 3.5% DSS", "value": "reduced"}, {"measurement": "colon length", "setting": "[5]; [7]", "value": "improved"}, {"measurement": "diarrhea", "setting": "[5]; [7]", "value": "reduced"}, {"measurement": "histology of the colon", "setting": "[5]; [7]", "value": "histological improvement"}, {"measurement": "rectal bleeding", "setting": "[5]; [7]", "value": "reduced"}]}]}
